Source: publication PMC11891579, “Fluorescent PyrAte-(S)-citalopram conjugates enable imaging of the serotonin transporter in living tissue” (Chemical Science, 2025)

Molecular target: T1, SERT (Homo sapiens, UniProt P31645)
T1 construct: expressed in transfected cells
Assay: whole-cell patch clamp of 5-HT-mediated currents in SERT-expressing HEK293 cells
Type: cell-based
Experimental: ten minutes (for [3H]MPP+), by exchange of the substrate-containing buffer with 0.2 mL ice-cold KHB.
The KHB was aspirated immediately. Cells were lysed and prepared for [3H] content analysis by adding 0.2 mL Ultima Gold™ XR liquid scintillation cocktail. Measurements were performed in a 1450 MicroBeta microplate liquid scintillation counter. Non-specific uptake was determined in the presence of 30 µM paroxetine (for YhSERT), 50 µM GBR12909 (for YhDAT and hNET), or 100 µM decynium-22 (for YhOCT3).
For radioligand binding assays, membranes were first prepared from HEK293 cells stably expressing YhSERT. Cells were harvested from dishes using a plastic scraper and ice-cold PBS. Cells were recovered as a pellet after centrifugation (400× g) for 10 min at 4°C, and then re-suspended in HME buffer. […] Protein concentration was determined using Coomassie Brilliant Blue kit (BioRad Laboratories, California, USA). […] The amount of radioactivity in the filters was measured using a Tri-Carb 2800TR liquid scintillation analyzer (PerkinElmer). The Ki was calculated from the measured IC50 using the Cheng-Prusoff equation.
Prior to imaging, cell culture medium was replaced with pre-warmed KHB. […] PyrAtes were excited using a 405 nm laser, and its fluorescent signals collected using 525/50 nm emission filters; mCherry was excited using a 561 nm laser, and fluorescence was collected using 595/50 nm emission filters. […]

T1 sequence (P31645 whole entry): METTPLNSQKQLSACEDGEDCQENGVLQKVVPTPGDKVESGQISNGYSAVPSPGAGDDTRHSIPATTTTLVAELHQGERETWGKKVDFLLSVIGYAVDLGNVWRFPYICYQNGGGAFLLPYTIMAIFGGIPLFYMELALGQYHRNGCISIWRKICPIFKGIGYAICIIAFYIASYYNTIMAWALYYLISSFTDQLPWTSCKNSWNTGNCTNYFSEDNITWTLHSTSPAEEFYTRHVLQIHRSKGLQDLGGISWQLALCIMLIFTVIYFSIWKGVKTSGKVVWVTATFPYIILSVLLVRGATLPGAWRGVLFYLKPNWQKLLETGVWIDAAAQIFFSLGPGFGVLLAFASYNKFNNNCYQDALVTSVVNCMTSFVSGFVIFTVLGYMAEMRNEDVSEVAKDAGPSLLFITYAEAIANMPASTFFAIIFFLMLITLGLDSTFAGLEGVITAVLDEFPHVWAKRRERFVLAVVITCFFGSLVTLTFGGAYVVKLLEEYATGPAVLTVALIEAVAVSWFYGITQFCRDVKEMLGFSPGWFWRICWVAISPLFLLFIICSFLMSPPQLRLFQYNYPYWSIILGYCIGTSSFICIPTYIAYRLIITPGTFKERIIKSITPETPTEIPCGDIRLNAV

ratio of 5-HT-mediated currents before and after application (current reduced to) (1 μM compound, 10 µM 5HT, N = 6): 47% | inhibition at 1 µM (HEK293, read-out: inhibition of 5-HT-mediated currents, 1 μM concentration): ~50%
Compound: CCN(CC)c1ccc(-c2cc[n+]3c(-c4ccccc4)c(N4CCCC4)n(CCCCCCC(=O)NCc4ccc5c(c4)CO[C@@]5(CCCN(C)C)c4ccc(F)cc4)c3c2)cc1 [PYR-C6-CIT, PyrAte-C6-(S)-citalopram]
